Data reported in patent US8673955B2, “Imidazole derivatives as fructose-1,6-bisphosphatase inhibitors and pharmaceutical compositions containing them” (Merck Patent GmbH, priority 2005, dated 2014).
Like-named read-outs stand apart in the source and are kept apart here.

What was measured:
[1] = molecular target: T1, human liver recombinant Fructose-1,6-bisphosphatase (Homo sapiens, UniProt P09467); experiment: Inhibition of human liver recombinant fructose-1,6-bisphosphatase, coupled spectrophotometric enzyme assay; format: biochemical
T1 sequence (P09467 1-338): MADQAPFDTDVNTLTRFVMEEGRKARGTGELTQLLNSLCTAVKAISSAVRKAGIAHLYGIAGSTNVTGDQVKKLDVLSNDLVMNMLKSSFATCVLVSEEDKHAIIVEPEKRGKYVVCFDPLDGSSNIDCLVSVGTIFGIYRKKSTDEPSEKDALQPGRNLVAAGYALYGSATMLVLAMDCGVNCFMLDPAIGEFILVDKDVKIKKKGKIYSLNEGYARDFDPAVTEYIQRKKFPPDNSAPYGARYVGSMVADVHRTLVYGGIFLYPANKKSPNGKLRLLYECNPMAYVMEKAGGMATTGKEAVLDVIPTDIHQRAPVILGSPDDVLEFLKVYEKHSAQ
Procedure: Enzymatic activity was measured spectrophotometrically in reactions that coupled the formation of product (fructose 6-Phosphate) to the reduction of NADP+, using phosphoglucoisomerase (PGI) and glucose 6-phosphate dehydrogenase (G6PDH) as the coupling enzymes.
Reaction mixtures (250 μl) were made up in 96-well microtitre plates, and consisted of 20 mM triethanolamine, pH 7.5, 2 mM MgCl2, 0.1 mM EDTA, 40 mM ammonium sulfate, 0.5 mM NADP, 1 U/ml G6PDH, 1 U/ml PGI and 0.167 mM substrate (Fructose 1,6-bisphosphate). The inhibitors were prepared at 10^-2 M in DMSO 100% and tested at 10^-5 M (DMSO 0.1%).
Reactions were started by the addition of the human liver recombinant Fructose-1,6-bisphosphatase and were monitored for 30 minutes at 340 nm in a Tecan Plate Reader (Room temperature).

[2] = test system: primary culture of rat hepatocytes; experiment: Hepatic glucose production in primary culture of rat hepatocytes (DHA as gluconeogenic precursor); format: cell-based; settings: 100 μM compound; 3 h incubation with DHA; control without compound = 100%
Procedure: Effects of the compounds previously described on hepatic glucose production in primary culture of rat hepatocytes.
Hepatocytes were isolated from normal Wistar rats in overnight fasted condition by collagenase perfusion as described by Seglen (Methods Cell Biol., (1975); 13, 29-83). Cell viability was assessed by the trypan blue exclusion test. The isolated hepatocytes were suspended in William's medium containing 10% fetal bovine serum in 6 well plates. After cell attachment (4 h) the medium was changed to remove cellular debris and replaced by serum-free minimum essential medium without glucose and the hepatocytes were cultured for 16-18 h (37° C.; 5%, CO2). At the end of the culture and after removing the medium, glucose production was assessed by incubating hepatocytes for 3 h in KREBS buffer supplemented with dihydroxyacetone (DHA) as a gluconeogenic precursor in the presence or not of the different compounds previously described. After the 3 h incubation time, the amount of glucose in the buffer was assayed by a glucose oxidase method (GOD). The total amount of cellular protein per well was measured by the method of Lowry. The results were expressed as nanomoles of glucose produced per mg cell protein. The activity of the tested compounds was expressed as % of control glucose production in presence of DHA and without compound (100%).

[3] = stated in method text, read-out: IC50 for reference inhibitors of Fructose-1,6-bisphosphatase
[4] = 0.167 mM fructose 1,6-bisphosphate, pH 7.5, room temperature, read-out: Inhibition of human F-1,6-Bpase IC50

| Hepatic glucose production (rat hepatocytes) % of control at 100 μM [2] | IC50 [1, 4] | Compound | IC50 [1, 3] |
| --- | --- | --- | --- |
|  |  | Nc1ncnc2c1ncn2[C@@H]1O[C@H](COP(=O)(O)O)[C@@H](O)[C@H]1O [AMP, reference compound] | ~10 µM |
| 61 % of control | 88.3 µM | O=C(O)c1ccc(Cn2cc(COCc3ccc(Cl)cc3)nc2-c2ccc(Br)cc2)cc1 [Example 47, 4-[2-(4-Bromophenyl)-4-(4-chlorobenzyloxymethyl)imidazol-1-ylmethyl]benzoic acid] |  |
| 10 % of control | 70.2 µM | O=C(O)c1ccc(Cn2cc(COCc3cccc(-c4ccccc4)c3)nc2-c2ccc(Cl)s2)cc1 [Example 20, 4-[4-(Biphenyl-3-ylmethoxymethyl)-2-(5-chlorothiophen-2-yl)imidazol-1-ylmethyl]benzoic acid] |  |
|  |  | O=P(O)(O)OC[C@H]1O[C@@](CO)(OP(=O)(O)O)[C@@H](O)[C@@H]1O [Fructose-2,6-Bisphosphate, reference compound] | ~35 µM |
| 44 % of control | 51.2 µM | Cc1nc(-c2ccc3ccc(COCc4cn(Cc5ccc(C(=O)O)cc5)c(-c5ccc(Cl)s5)n4)cc3c2)no1 [Example 26, 4-{2-(5-Chlorothiophen-2-yl)-4-[7-(5-methyl-[1,2,4]-oxadiazol-3-yl)naphthalen-2-ylmethoxymethyl]imidazol-1-ylmethyl}benzoic acid] |  |
